Laboratory results reported in patent publication USRE42890E1, “Furazanobenzimidazoles” (Basilea Pharmaceutica AG, priority 2003, dated 2011).
Values belong to the compound of their own block, whether it stands above or below them.

Key:
Jurkat = experiment: MTS proliferation assay, Jurkat; assay type: cell-based, human; details: 72 h incubation, read-out: MTS proliferation assay IC 50 Jurkat
Procedure, shortened: (§1)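 Cells were seeded 24 h before treatment and exposed to compound at 10, 3, 1 and 0.3 μM final for 72 h at 37 °C, 7.5% CO2 in RPMI-1640 with 5% or 10% FCS. Viability was read by MTS reagent (3 h) as absorbance at 492 nm.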

[1] = test system: adherent cells or suspension cells; experiment: Hoechst 33342 nuclear staining (fraction of apoptotic nuclei); assay type: cell-based; parameters: key: 0 relating to no activity; 1 relating to weak activity comprising less than 70% of the cells; score 2 relating to strong activity comprising more than 70% of the cells
MRC5 = experiment: MTS proliferation assay, MRC5; assay type: cell-based; details: MRC5, 72 h incubation; read-out: MTS proliferation assay IC 50 MRC5
Procedure, shortened: (§2)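 Cells in RPMI-1640 with 5% or 10% FCS, 2-mercaptoethanol and glutamine were seeded 24 h before treatment with compound at final 10, 3, 1 and 0.3 μM. After 72 h at 37° C and 7.5% CO2, MTS reagent was added for 3 h and absorbance read at 492 nm.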

HeLa = experiment: MTS proliferation assay, HeLa; assay type: cell-based, human; details: 72 h incubation, read-out: MTS proliferation assay IC 50 HeLa
Procedure, shortened: as §1

HT1080 = experiment: MTS proliferation assay, HT1080; assay type: cell-based, human; details: HT1080, 72 h incubation; read-out: MTS proliferation assay IC 50 HT1080
Procedure, shortened: as §1

Jily = experiment: MTS proliferation assay, Jily; assay type: cell-based; details: 72 h incubation, read-out: MTS proliferation assay IC 50 Jily
Procedure, shortened: as §2

SMILES: N#CCCNc1nonc1-c1nc2ccccc2n1CC(=O)c1ccc2ccccc2c1 [Example 46]
IC50 (Jurkat): < 10 nM
Hoechst 33342 nuclear staining score ([1]; H460, conc 0.01 μm): 0
Hoechst 33342 nuclear staining score ([1]; H460, conc 0.1 μm): 0
Hoechst 33342 nuclear staining score ([1]; H460, conc 1 μm): 2 (score 2 relating to strong activity comprising more than 70% of the cells)
Hoechst 33342 nuclear staining score ([1]; HeLa, conc 0.01 μm): 0
Hoechst 33342 nuclear staining score ([1]; HeLa, conc 0.1 μm): 0
Hoechst 33342 nuclear staining score ([1]; HeLa, conc 1 μm): 2 (score 2 relating to strong activity comprising more than 70% of the cells)
Hoechst 33342 nuclear staining score ([1]; Jily, conc 0.01 μm): 0
Hoechst 33342 nuclear staining score ([1]; Jily, conc 0.1 μm): 2 (score 2 relating to strong activity comprising more than 70% of the cells)
Hoechst 33342 nuclear staining score ([1]; Jily, conc 1 μm): 2 (score 2 relating to strong activity comprising more than 70% of the cells)
Hoechst 33342 nuclear staining score ([1]; Jurkat, conc 0.01 μm): 0
Hoechst 33342 nuclear staining score ([1]; Jurkat, conc 0.1 μm): 2 (score 2 relating to strong activity comprising more than 70% of the cells)
Hoechst 33342 nuclear staining score ([1]; Jurkat, conc 1 μm): 2 (score 2 relating to strong activity comprising more than 70% of the cells)
Hoechst 33342 nuclear staining score ([1]; MRC5, conc 0.01 μm): 0
Hoechst 33342 nuclear staining score ([1]; MRC5, conc 0.1 μm): 0
Hoechst 33342 nuclear staining score ([1]; MRC5, conc 1 μm): 2 (score 2 relating to strong activity comprising more than 70% of the cells)
Hoechst 33342 nuclear staining score ([1]; PBLs, conc 0.01 μm): 0
Hoechst 33342 nuclear staining score ([1]; PBLs, conc 0.1 μm): 0
Hoechst 33342 nuclear staining score ([1]; PBLs, conc 1 μm): 0
IC50 (MRC5): 100 to 1000 nM
IC50 (HeLa): 10 to 100 nM
IC50 (HT1080): 10 to 100 nM
IC50 (Jily): 10 to 100 nM

SMILES: CC(C)n1c(-c2nonc2N)nc2ccccc21 [A, reference compound]
IC50 (Jurkat): > 1000 nM
Hoechst 33342 nuclear staining score ([1]; H460, conc 3 μm): 0
Hoechst 33342 nuclear staining score ([1]; H460, conc 10 μm): 0
Hoechst 33342 nuclear staining score ([1]; H460, conc 30 μm): 0
Hoechst 33342 nuclear staining score ([1]; HeLa, conc 3 μm): 0
Hoechst 33342 nuclear staining score ([1]; HeLa, conc 10 μm): 0
Hoechst 33342 nuclear staining score ([1]; HeLa, conc 30 μm): 0
Hoechst 33342 nuclear staining score ([1]; Jily, conc 3 μm): 0
Hoechst 33342 nuclear staining score ([1]; Jily, conc 10 μm): 0
Hoechst 33342 nuclear staining score ([1]; Jily, conc 30 μm): 0
Hoechst 33342 nuclear staining score ([1]; Jurkat, conc 3 μm): 0
Hoechst 33342 nuclear staining score ([1]; Jurkat, conc 10 μm): 0
Hoechst 33342 nuclear staining score ([1]; Jurkat, conc 30 μm): 0
Hoechst 33342 nuclear staining score ([1]; MRC5, conc 3 μm): 0
Hoechst 33342 nuclear staining score ([1]; MRC5, conc 10 μm): 0
Hoechst 33342 nuclear staining score ([1]; MRC5, conc 30 μm): 0
Hoechst 33342 nuclear staining score ([1]; PBLs, conc 3 μm): 0
Hoechst 33342 nuclear staining score ([1]; PBLs, conc 10 μm): 0
Hoechst 33342 nuclear staining score ([1]; PBLs, conc 30 μm): 0
IC50 (MRC5): > 1000 nM
IC50 (HeLa): > 1000 nM
IC50 (HT1080): > 1000 nM
IC50 (Jily): > 1000 nM

SMILES: Nc1nonc1-c1nc2ccccc2n1CC(=O)c1ccc(Cl)cc1Cl [Example 31]
IC50 (Jurkat): 100 to 1000 nM
Hoechst 33342 nuclear staining score ([1]; H460, conc 0.01 μm): 0
Hoechst 33342 nuclear staining score ([1]; H460, conc 0.1 μm): 0
Hoechst 33342 nuclear staining score ([1]; H460, conc 1 μm): 0
Hoechst 33342 nuclear staining score ([1]; HeLa, conc 0.01 μm): 0
Hoechst 33342 nuclear staining score ([1]; HeLa, conc 0.1 μm): 0
Hoechst 33342 nuclear staining score ([1]; HeLa, conc 1 μm): 0
Hoechst 33342 nuclear staining score ([1]; Jurkat, conc 0.01 μm): 0
Hoechst 33342 nuclear staining score ([1]; Jurkat, conc 0.1 μm): 0
Hoechst 33342 nuclear staining score ([1]; Jurkat, conc 1 μm): 1 (1 relating to weak activity comprising less than 70% of the cells)
Hoechst 33342 nuclear staining score ([1]; MRC5, conc 0.01 μm): 0
Hoechst 33342 nuclear staining score ([1]; MRC5, conc 0.1 μm): 0
Hoechst 33342 nuclear staining score ([1]; MRC5, conc 1 μm): 0
Hoechst 33342 nuclear staining score ([1]; PBLs, conc 0.01 μm): 0
Hoechst 33342 nuclear staining score ([1]; PBLs, conc 0.1 μm): 0
Hoechst 33342 nuclear staining score ([1]; PBLs, conc 1 μm): 0
IC50 (MRC5): 100 to 1000 nM
IC50 (HeLa): 100 to 1000 nM
IC50 (HT1080): > 1000 nM
IC50 (Jily): 100 to 1000 nM

Second part, led by results:

IC50 (Jurkat): < 10 nM
IC50 (HeLa): 10 to 100 nM
IC50 (HT1080): 10 to 100 nM
SMILES: Cc1ccc(C(=O)Cn2c(-c3nonc3N)nc3ccccc32)cc1 [Example 44]
Hoechst 33342 nuclear staining score ([1]; H460, conc 0.01 μm): 0
Hoechst 33342 nuclear staining score ([1]; H460, conc 0.1 μm): 2 (score 2 relating to strong activity comprising more than 70% of the cells)
Hoechst 33342 nuclear staining score ([1]; H460, conc 1 μm): 2 (score 2 relating to strong activity comprising more than 70% of the cells)
Hoechst 33342 nuclear staining score ([1]; HeLa, conc 0.01 μm): 0
Hoechst 33342 nuclear staining score ([1]; HeLa, conc 0.1 μm): 1 (1 relating to weak activity comprising less than 70% of the cells)
Hoechst 33342 nuclear staining score ([1]; HeLa, conc 1 μm): 2 (score 2 relating to strong activity comprising more than 70% of the cells)
Hoechst 33342 nuclear staining score ([1]; Jily, conc 0.01 μm): 0
Hoechst 33342 nuclear staining score ([1]; Jily, conc 0.1 μm): 2 (score 2 relating to strong activity comprising more than 70% of the cells)
Hoechst 33342 nuclear staining score ([1]; Jily, conc 1 μm): 2 (score 2 relating to strong activity comprising more than 70% of the cells)
Hoechst 33342 nuclear staining score ([1]; Jurkat, conc 0.01 μm): 0
Hoechst 33342 nuclear staining score ([1]; Jurkat, conc 0.1 μm): 2 (score 2 relating to strong activity comprising more than 70% of the cells)
Hoechst 33342 nuclear staining score ([1]; Jurkat, conc 1 μm): 2 (score 2 relating to strong activity comprising more than 70% of the cells)
Hoechst 33342 nuclear staining score ([1]; MRC5, conc 0.01 μm): 0
Hoechst 33342 nuclear staining score ([1]; MRC5, conc 0.1 μm): 0
Hoechst 33342 nuclear staining score ([1]; MRC5, conc 1 μm): 2 (score 2 relating to strong activity comprising more than 70% of the cells)
Hoechst 33342 nuclear staining score ([1]; PBLs, conc 0.01 μm): 0
Hoechst 33342 nuclear staining score ([1]; PBLs, conc 0.1 μm): 0
Hoechst 33342 nuclear staining score ([1]; PBLs, conc 1 μm): 0
IC50 (MRC5): 10 to 100 nM
IC50 (Jily): 10 to 100 nM

IC50 (Jurkat): 10 to 100 nM
IC50 (HeLa): 10 to 100 nM
IC50 (HT1080): 100 to 1000 nM
SMILES: Nc1nonc1-c1nc2ccccc2n1CC(=O)c1cccc(Cl)c1 [Example 35]
Hoechst 33342 nuclear staining score ([1]; H460, conc 0.01 μm): 0
Hoechst 33342 nuclear staining score ([1]; H460, conc 0.1 μm): 0
Hoechst 33342 nuclear staining score ([1]; H460, conc 1 μm): 2 (score 2 relating to strong activity comprising more than 70% of the cells)
Hoechst 33342 nuclear staining score ([1]; HeLa, conc 0.01 μm): 0
Hoechst 33342 nuclear staining score ([1]; HeLa, conc 0.1 μm): 0
Hoechst 33342 nuclear staining score ([1]; HeLa, conc 1 μm): 2 (score 2 relating to strong activity comprising more than 70% of the cells)
Hoechst 33342 nuclear staining score ([1]; Jily, conc 0.01 μm): 0
Hoechst 33342 nuclear staining score ([1]; Jily, conc 0.1 μm): 1 (1 relating to weak activity comprising less than 70% of the cells)
Hoechst 33342 nuclear staining score ([1]; Jily, conc 1 μm): 2 (score 2 relating to strong activity comprising more than 70% of the cells)
Hoechst 33342 nuclear staining score ([1]; Jurkat, conc 0.01 μm): 0
Hoechst 33342 nuclear staining score ([1]; Jurkat, conc 0.1 μm): 2 (score 2 relating to strong activity comprising more than 70% of the cells)
Hoechst 33342 nuclear staining score ([1]; Jurkat, conc 1 μm): 2 (score 2 relating to strong activity comprising more than 70% of the cells)
Hoechst 33342 nuclear staining score ([1]; MRC5, conc 0.01 μm): 0
Hoechst 33342 nuclear staining score ([1]; MRC5, conc 0.1 μm): 2 (score 2 relating to strong activity comprising more than 70% of the cells)
Hoechst 33342 nuclear staining score ([1]; MRC5, conc 1 μm): 2 (score 2 relating to strong activity comprising more than 70% of the cells)
Hoechst 33342 nuclear staining score ([1]; PBLs, conc 0.01 μm): 0
Hoechst 33342 nuclear staining score ([1]; PBLs, conc 0.1 μm): 0
Hoechst 33342 nuclear staining score ([1]; PBLs, conc 1 μm): 0
IC50 (MRC5): 100 to 1000 nM
IC50 (Jily): 10 to 100 nM

IC50 (Jurkat): 100 to 1000 nM
IC50 (HeLa): 100 to 1000 nM
IC50 (HT1080): 100 to 1000 nM
SMILES: CC(=O)Nc1ccc(C(=O)Cn2c(-c3nonc3N)nc3ccccc32)cc1 [Example 60]
Hoechst 33342 nuclear staining score ([1]; H460, conc 0.01 μm): 0
Hoechst 33342 nuclear staining score ([1]; H460, conc 0.1 μm): 0
Hoechst 33342 nuclear staining score ([1]; H460, conc 1 μm): 0
Hoechst 33342 nuclear staining score ([1]; HeLa, conc 0.01 μm): 0
Hoechst 33342 nuclear staining score ([1]; HeLa, conc 0.1 μm): 0
Hoechst 33342 nuclear staining score ([1]; HeLa, conc 1 μm): 1 (1 relating to weak activity comprising less than 70% of the cells)
Hoechst 33342 nuclear staining score ([1]; Jily, conc 0.01 μm): 0
Hoechst 33342 nuclear staining score ([1]; Jily, conc 0.1 μm): 0
Hoechst 33342 nuclear staining score ([1]; Jily, conc 1 μm): 2 (score 2 relating to strong activity comprising more than 70% of the cells)
Hoechst 33342 nuclear staining score ([1]; Jurkat, conc 0.01 μm): 0
Hoechst 33342 nuclear staining score ([1]; Jurkat, conc 0.1 μm): 0
Hoechst 33342 nuclear staining score ([1]; Jurkat, conc 1 μm): 2 (score 2 relating to strong activity comprising more than 70% of the cells)
Hoechst 33342 nuclear staining score ([1]; MRC5, conc 0.01 μm): 0
Hoechst 33342 nuclear staining score ([1]; MRC5, conc 0.1 μm): 0
Hoechst 33342 nuclear staining score ([1]; MRC5, conc 1 μm): 2 (score 2 relating to strong activity comprising more than 70% of the cells)
Hoechst 33342 nuclear staining score ([1]; PBLs, conc 0.01 μm): 0
Hoechst 33342 nuclear staining score ([1]; PBLs, conc 0.1 μm): 0
Hoechst 33342 nuclear staining score ([1]; PBLs, conc 1 μm): 0
IC50 (MRC5): 100 to 1000 nM
IC50 (Jily): 100 to 1000 nM
